# Source: ChEMBL document CHEMBL1148572, “1-((S)-2-aminopropyl)-1H-indazol-6-ol: a potent peripherally acting 5-HT2 receptor agonist with ocular hypotensive activity” (J Med Chem, 2006)
# Legend:
# [1] = biological target: T1, monoamine oxidase B (MAO-B) (Rattus norvegicus, UniProt P19643); assay: Inhibition of monoamine oxidase B in rat brain at 1 nM; assay type: tissue-based
# T1 sequence (P19643 whole entry): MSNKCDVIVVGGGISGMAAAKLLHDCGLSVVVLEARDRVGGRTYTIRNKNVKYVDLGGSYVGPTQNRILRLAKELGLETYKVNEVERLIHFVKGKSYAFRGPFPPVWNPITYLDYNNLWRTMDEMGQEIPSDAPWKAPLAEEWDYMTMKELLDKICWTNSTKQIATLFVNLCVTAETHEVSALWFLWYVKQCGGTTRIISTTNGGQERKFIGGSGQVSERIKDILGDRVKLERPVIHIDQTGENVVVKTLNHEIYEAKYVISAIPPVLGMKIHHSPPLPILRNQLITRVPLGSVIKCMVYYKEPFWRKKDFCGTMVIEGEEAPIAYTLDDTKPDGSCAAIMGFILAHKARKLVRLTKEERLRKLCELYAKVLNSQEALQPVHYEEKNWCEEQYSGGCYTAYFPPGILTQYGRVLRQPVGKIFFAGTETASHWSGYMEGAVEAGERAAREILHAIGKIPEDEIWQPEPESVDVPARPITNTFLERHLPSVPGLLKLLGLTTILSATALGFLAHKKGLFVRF
# [2] = biological target: Leukotriene B4 receptor (Homo sapiens) (UniProt Q9NPC1+Q15722); assay: Inhibition of leukotriene B4 at 10 uM; assay type: protein assay
# [3] = biological target: Adenosine receptor (Homo sapiens) (UniProt P30542+P29275+P0DMS8+P29274); assay: Inhibition of non selective binding to adenosine receptor at 10 uM; assay type: protein assay
# [4] = biological target: T2, Opioid receptors; mu/kappa/delta (Homo sapiens) (UniProt P41145+P41143+P35372); assay: Inhibition of non selective binding to opiate receptor at 100 nM; assay type: protein assay
# [5] = Inhibitory activity at TBOB site in GABA gated chloride channel at 1 nM
# [6] = biological target: T3, Glutamate [NMDA] receptor (Homo sapiens) (UniProt Q05586+Q12879+Q13224+O15399+O60391+Q14957+Q8TCU5); assay: Inhibition of MK-801 site of glutamate receptor at 100 nM; assay type: protein-complex assay
# [7] = biological target: T4, Alpha-2C adrenergic receptor (Homo sapiens, UniProt P18825); assay: Activity at adrenergic Alpha-2C receptor expressed in rat-mouse hybrid […] cell by adenylyl cyclase assay; assay type: functional, cell-based
# T4 sequence (P18825 whole entry): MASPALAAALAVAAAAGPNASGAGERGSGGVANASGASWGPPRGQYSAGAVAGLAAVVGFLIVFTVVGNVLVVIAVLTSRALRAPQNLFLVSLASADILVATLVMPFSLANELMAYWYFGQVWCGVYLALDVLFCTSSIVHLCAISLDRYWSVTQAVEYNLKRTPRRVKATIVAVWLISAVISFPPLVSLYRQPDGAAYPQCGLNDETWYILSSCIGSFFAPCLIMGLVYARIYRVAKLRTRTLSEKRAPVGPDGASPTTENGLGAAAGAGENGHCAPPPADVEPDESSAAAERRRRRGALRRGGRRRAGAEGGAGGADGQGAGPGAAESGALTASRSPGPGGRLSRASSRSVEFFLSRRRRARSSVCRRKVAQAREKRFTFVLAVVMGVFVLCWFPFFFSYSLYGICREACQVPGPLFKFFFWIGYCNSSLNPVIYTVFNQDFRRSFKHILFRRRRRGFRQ
# MDR1 (P-gp) = assay: Permeability from basolateral to apical side of the MDCK cell transfected with human MDR1; assay type: ADME, cell-based
# [8] = biological target: T2, Opioid receptors; mu/kappa/delta (Homo sapiens); assay: Inhibition of non selective binding to opiate receptor at 10 uM; assay type: protein assay
# [9] = biological target: T3, Glutamate [NMDA] receptor (Homo sapiens); assay: Inhibition of MK-801 site of glutamate receptor at 1 nM; assay type: protein-complex assay
# [10] = Inhibition of non selective binding to VIP at 10 uM
# [11] = biological target: T5, Atrial natriuretic peptide receptor 1 (Homo sapiens) (UniProt P16066); assay: Inhibition of ANP A at 1 nM
# T5 sequence (whole entry): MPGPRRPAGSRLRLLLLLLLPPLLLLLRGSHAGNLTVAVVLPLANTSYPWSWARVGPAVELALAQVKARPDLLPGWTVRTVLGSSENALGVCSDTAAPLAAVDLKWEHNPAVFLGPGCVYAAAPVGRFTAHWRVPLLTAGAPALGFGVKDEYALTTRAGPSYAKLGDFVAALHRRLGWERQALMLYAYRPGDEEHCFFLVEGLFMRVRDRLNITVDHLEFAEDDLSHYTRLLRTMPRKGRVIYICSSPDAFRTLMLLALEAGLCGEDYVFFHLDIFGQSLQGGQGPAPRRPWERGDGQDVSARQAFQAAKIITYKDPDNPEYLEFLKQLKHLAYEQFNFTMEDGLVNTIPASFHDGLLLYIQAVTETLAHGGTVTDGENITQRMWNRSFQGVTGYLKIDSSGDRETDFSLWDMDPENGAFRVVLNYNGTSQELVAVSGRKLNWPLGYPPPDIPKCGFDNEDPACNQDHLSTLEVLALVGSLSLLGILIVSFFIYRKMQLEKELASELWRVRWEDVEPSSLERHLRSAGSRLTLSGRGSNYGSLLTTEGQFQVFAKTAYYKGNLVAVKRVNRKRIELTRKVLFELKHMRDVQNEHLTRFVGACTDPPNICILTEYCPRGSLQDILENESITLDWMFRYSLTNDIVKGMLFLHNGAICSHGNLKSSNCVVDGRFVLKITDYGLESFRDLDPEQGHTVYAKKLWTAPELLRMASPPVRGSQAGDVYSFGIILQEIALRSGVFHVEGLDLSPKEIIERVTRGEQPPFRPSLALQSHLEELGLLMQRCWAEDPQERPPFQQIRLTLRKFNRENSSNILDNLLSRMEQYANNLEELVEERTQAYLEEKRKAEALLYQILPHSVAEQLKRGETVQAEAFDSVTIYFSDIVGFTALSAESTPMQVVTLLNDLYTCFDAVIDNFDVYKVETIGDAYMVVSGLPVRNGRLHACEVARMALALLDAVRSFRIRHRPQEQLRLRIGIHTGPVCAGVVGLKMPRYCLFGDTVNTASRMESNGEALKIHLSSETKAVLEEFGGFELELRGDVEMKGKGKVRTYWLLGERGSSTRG
# [12] = biological target: 5-hydroxytryptamine receptor 4 (Homo sapiens, UniProt Q13639); assay: Inhibitory activity against 5HT4 receptor
# [13] = biological target: 5-hydroxytryptamine receptor 1D (Homo sapiens, UniProt P28221); assay: Inhibitory activity against 5HT1D receptor
# 5-hydroxytryptamine receptor 1D, sequence (P28221 whole entry): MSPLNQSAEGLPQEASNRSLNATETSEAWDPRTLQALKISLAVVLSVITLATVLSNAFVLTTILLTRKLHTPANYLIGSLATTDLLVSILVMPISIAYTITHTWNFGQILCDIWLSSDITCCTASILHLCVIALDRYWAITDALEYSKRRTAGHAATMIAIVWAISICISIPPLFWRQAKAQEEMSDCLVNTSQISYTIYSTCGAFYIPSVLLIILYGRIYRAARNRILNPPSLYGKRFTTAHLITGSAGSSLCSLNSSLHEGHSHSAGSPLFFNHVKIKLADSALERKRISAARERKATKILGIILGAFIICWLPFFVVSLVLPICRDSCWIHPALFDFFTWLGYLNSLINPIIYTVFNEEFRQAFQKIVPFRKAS
# T2 sequence (P35372 whole entry, looked up): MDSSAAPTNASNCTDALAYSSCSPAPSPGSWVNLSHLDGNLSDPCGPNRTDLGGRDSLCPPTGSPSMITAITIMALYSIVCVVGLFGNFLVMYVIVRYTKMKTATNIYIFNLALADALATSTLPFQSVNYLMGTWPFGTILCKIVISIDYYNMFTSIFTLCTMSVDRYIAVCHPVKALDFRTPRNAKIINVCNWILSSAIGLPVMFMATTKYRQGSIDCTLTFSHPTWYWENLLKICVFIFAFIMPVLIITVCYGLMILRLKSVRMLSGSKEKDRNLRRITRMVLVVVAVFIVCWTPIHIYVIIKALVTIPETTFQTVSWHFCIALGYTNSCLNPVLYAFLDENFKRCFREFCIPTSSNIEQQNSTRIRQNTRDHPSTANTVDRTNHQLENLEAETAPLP
# T2 sequence (P41143 whole entry, looked up): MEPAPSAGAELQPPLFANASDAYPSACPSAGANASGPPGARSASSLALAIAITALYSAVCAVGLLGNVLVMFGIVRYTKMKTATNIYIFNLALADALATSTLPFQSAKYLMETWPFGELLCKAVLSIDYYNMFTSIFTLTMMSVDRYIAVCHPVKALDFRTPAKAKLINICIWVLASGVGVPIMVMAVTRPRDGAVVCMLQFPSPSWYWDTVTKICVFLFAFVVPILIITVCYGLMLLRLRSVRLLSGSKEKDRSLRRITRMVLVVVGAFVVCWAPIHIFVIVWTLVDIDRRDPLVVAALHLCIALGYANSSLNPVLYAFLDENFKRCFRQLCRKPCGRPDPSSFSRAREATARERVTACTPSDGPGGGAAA
# T2 sequence (P41145 whole entry, looked up): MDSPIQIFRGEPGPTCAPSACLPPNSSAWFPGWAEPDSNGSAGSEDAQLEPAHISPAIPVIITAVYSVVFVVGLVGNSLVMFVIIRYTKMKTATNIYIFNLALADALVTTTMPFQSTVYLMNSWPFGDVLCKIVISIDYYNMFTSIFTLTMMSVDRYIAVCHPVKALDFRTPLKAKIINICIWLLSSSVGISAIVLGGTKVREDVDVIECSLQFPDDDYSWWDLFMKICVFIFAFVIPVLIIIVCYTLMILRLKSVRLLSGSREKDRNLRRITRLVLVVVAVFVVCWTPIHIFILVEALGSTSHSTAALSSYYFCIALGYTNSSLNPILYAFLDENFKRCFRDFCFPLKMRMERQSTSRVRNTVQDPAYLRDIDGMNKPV
# 5-hydroxytryptamine receptor 4, sequence (Q13639 whole entry): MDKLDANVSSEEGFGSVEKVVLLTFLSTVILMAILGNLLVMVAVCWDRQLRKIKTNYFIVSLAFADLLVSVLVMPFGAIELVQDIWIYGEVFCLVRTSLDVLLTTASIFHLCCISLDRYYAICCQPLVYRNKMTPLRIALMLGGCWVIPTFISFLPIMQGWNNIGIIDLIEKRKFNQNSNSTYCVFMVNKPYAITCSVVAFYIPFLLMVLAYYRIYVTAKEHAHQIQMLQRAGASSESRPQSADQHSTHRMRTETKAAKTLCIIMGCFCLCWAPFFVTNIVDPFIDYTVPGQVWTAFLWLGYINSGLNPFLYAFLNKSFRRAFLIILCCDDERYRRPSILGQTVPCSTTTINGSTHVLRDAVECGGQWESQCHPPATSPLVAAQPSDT
# Leukotriene B4 receptor (Homo sapiens), sequence (Q15722 whole entry, looked up): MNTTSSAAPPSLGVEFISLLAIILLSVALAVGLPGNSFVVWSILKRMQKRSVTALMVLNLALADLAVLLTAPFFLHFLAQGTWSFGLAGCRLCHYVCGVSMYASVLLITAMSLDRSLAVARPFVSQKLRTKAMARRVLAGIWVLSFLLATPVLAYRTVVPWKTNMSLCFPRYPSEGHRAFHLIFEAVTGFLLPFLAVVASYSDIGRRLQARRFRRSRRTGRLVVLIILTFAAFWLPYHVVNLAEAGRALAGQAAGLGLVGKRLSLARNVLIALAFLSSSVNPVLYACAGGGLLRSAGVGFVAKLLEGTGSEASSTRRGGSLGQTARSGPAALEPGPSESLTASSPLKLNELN
# Leukotriene B4 receptor (Homo sapiens), sequence (Q9NPC1 whole entry, looked up): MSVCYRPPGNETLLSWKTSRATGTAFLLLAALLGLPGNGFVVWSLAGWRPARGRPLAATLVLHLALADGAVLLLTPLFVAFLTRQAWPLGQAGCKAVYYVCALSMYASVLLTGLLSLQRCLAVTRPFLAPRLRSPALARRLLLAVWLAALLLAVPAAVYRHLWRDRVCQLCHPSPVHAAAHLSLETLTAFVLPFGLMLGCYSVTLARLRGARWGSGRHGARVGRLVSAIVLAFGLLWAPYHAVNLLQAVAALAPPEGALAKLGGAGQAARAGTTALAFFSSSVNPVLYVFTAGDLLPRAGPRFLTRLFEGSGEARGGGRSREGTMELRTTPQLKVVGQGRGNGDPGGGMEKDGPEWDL
# Adenosine receptor (Homo sapiens), sequence (P0DMS8 whole entry, looked up): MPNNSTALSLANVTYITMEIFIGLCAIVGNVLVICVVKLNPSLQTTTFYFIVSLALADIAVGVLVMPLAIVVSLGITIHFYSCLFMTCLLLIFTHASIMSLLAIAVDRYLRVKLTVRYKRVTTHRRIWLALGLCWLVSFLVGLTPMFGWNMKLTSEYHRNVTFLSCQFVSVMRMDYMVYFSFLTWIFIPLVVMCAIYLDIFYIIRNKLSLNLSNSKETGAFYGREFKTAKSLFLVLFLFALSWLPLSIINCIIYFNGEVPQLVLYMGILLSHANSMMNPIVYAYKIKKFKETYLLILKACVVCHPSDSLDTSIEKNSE
# Adenosine receptor (Homo sapiens), sequence (P29274 whole entry, looked up): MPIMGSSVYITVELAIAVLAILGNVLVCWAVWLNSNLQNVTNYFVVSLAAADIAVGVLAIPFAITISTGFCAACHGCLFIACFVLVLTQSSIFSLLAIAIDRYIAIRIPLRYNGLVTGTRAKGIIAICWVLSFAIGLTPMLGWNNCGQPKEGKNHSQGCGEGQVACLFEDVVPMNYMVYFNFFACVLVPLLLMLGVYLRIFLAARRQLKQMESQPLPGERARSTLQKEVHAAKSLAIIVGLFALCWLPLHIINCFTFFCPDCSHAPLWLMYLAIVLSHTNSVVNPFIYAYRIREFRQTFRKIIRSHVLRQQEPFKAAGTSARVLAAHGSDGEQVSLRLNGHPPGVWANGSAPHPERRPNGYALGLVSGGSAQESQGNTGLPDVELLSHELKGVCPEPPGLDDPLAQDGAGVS
# Adenosine receptor (Homo sapiens), sequence (P29275 whole entry, looked up): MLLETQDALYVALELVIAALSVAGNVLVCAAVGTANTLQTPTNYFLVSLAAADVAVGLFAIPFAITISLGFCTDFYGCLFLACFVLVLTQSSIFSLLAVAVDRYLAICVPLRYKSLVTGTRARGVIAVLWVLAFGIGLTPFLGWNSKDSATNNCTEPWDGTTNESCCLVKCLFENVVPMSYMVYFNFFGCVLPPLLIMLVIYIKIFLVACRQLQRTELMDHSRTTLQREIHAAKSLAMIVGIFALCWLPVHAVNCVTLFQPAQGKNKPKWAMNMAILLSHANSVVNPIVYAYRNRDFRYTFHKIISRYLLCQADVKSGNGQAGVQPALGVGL
# Adenosine receptor (Homo sapiens), sequence (P30542 whole entry, looked up): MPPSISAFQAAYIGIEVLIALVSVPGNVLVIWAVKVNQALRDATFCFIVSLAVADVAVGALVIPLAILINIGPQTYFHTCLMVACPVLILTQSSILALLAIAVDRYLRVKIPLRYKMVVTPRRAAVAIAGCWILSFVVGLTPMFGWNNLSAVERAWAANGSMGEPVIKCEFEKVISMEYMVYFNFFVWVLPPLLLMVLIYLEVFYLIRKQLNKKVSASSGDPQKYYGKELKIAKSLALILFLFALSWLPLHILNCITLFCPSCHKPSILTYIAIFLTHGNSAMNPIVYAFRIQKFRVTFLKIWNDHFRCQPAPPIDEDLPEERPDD
structure (smiles),measurement,setting,value
C[C@H](N)Cn1ncc2ccc(O)cc21,inhibition at 0.001 µM,[1],-15.4%
same,inhibition,[2],13%
same,inhibition,[3],13.2%
same,inhibition,[4],-2.14%
same,inhibition,[5],-3.75%
same,inhibition,[6],11.4%
same,EC50,[7],10 µM
same,Papp B→A,MDR1 (P-gp),0.88 ×10⁻⁶ cm/s
same,inhibition,[8],63.3%
same,inhibition,[9],-7.45%
same,inhibition,[10],-5.59%
same,inhibition,[11],-5.65%
same,Ki,[12],0.515 µM
same,Ki,[13],7.87 µM
